From patent publication US20010056060A1, “Treatment of osteoporsis with EP2/EP4 receptor selective agonists” (priority 2000, published 2001) come the findings set out here.

Broadly, the IC50 is the point on the concentration scale where inhibition reaches its midpoint. Low values mean inhibition by little substance, high ones a need for much substance.

One experiment addresses T1, EP2 receptor (Homo sapiens, UniProt P43116).
T1 construct: The full length EP2 receptor is made as disclosed in Regan et al; expressed in transfected cells; membranes
Description: Assay for binding to prostaglandin E2 receptors (3H-PGE2 displacement), EP2. Here is the method:
(§1) All operations are performed at 4° C. […] The cells are lysed by sonification with a Branson Sonifier (Model #250, Branson Ultrasonics Corporation, Danbury, Conn.) in 2 fifteen second bursts. Unlysed cells and debris are removed by centrifugation at 100× g for 10 min. Membranes are then harvested by centrifugation at 45,000× g for 30 minutes. Pelleted membranes are resuspended to 3-10 mg protein per ml, protein concentration being determined of the method of Bradford [Bradford, M., Anal. Biochem., 72, 248 (1976)]. Resuspended membranes are then stored frozen at −80° C. until use.
(§2) Frozen membranes prepared as above are thawed and diluted to 1 mg protein per ml in Buffer A above. […] The membranes are then recovered by filtration through type GF/C glass fiber filters (#1205-401, Wallac, Gaithersburg, Md.) using a Tomtec harvester (Model Mach II/96, Tomtec, Orange, Conn.). […] Each sample is then washed 3 times with 3 ml of [50 mM Tris-HCl (pH 7.4), 10 mM MgCl2, 1 mM EDTA]. The filters are then dried by heating in a microwave oven. To determine the amount of ^3H—prostaglandin bound to the membranes, the dried filters are placed into plastic bags with scintillation fluid and counted in a LKB 1205 Betaplate reader (Wallac, Gaithersburg, Md.).
(§3) The full length EP1 receptor is made as disclosed in Funk et al., Journal of Biological Chemistry, 1993, 268, 26767-26772. […]

Another experiment addresses T2, EP4 receptor (Homo sapiens, UniProt P35408).
T2 construct: The full length EP4 receptor is made as disclosed in Bastien; expressed in transfected cells; membranes
Description: Assay for binding to prostaglandin E2 receptors (3H-PGE2 displacement), EP4. How it is done: as §1, §2, §3

A further experiment addresses T3, EP1 receptor (Homo sapiens, UniProt P34995).
T3 construct: The full length EP1 receptor is made as disclosed in Funk et al; expressed in transfected cells; membranes
T3 sequence (P34995 1-402): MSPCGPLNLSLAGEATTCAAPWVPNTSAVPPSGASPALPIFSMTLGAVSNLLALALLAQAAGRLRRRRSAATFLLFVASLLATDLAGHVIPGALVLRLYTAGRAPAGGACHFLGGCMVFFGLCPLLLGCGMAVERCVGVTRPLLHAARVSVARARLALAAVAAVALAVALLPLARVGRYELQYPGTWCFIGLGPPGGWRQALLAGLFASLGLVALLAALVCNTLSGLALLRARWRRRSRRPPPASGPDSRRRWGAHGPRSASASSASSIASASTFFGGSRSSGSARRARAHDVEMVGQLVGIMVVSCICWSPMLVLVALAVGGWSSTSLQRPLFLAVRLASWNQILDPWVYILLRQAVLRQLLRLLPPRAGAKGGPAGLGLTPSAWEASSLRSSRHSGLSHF
Kind of experiment: Assay for binding to prostaglandin E2 receptors (3H-PGE2 displacement), EP1. Here is the method: (§4) All operations are performed at 4° C. […] Louis, Mo.), 1 uM pepstatin A peptide, (Sigma, St. Louis, Mo.), 10 uM elastatinal peptide, (Sigma, St. Louis, Mo.), 100 uM antipain peptide, (Sigma, St. Louis, Mo.)]. The cells are lysed by sonification with a Branson Sonifier (Model #250, Branson Ultrasonics Corporation, Danbury, Conn.) in 2 fifteen second bursts. Unlysed cells and debris are removed by centrifugation at 100× g for 10 min. Membranes are then harvested by centrifugation at 45,000× g for 30 minutes. Pelleted membranes are resuspended to 3-10 mg protein per ml, protein concentration being determined of the method of Bradford [Bradford, M., Anal. Biochem., 72, 248 (1976)]. Resuspended membranes are then stored frozen at -80° C. until use. Frozen membranes prepared as above are thawed and diluted to 1 mg protein per ml in Buffer A above. One volume of membrane preparation is combined with 0.05 volume test compound or buffer and one volume of 3 nM ^3H-prostaglandin E2 (#TRK 431, Amersham, Arlington Heights, Ill.) in Buffer A. The mixture (205 μL total volume) is incubated for 1 hour at 25° C. […] To determine the amount of ^3H-prostaglandin bound to the membranes, the dried filters are placed into plastic bags with scintillation fluid and counted in a LKB 1205 Betaplate reader (Wallac, Gaithersburg, Md.). […]

Another experiment concerns the target T4, EP3 receptor (Homo sapiens, UniProt P43115).
T4 construct: The full length EP3 receptor is made as disclosed in Regan et al; expressed in transfected cells; membranes
T4 sequence (P43115 1-390): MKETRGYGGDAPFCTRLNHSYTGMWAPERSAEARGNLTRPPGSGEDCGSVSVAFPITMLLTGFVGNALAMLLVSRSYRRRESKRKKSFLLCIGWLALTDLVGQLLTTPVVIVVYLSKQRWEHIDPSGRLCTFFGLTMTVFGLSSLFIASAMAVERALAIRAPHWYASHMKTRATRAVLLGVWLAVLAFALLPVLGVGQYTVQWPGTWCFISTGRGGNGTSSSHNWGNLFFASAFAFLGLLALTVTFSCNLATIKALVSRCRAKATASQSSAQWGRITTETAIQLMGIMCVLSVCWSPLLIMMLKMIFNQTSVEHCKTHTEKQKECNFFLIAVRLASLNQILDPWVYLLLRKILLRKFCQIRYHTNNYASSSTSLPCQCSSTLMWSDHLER
Kind of experiment: Assay for binding to prostaglandin E2 receptors (3H-PGE2 displacement), EP3. How it is done:
as §4

For another experiment, the target named is T5, DP receptor (Homo sapiens, UniProt Q13258).
T5 sequence (Q13258 1-359): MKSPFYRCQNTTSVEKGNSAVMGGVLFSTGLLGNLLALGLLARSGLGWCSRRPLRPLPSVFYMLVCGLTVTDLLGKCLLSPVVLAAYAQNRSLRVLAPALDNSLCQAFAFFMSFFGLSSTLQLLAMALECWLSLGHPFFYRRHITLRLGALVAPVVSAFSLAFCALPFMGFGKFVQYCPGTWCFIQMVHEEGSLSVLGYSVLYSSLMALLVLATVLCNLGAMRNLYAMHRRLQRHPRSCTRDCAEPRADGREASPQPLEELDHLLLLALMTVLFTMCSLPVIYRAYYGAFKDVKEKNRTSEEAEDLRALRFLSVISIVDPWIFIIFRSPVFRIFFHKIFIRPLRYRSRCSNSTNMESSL
Kind of experiment: DP receptor binding.

The next experiment deals with IP receptor (Homo sapiens, UniProt P43119). Kind of experiment: IP receptor binding.
Chain of IP receptor (P43119 whole entry): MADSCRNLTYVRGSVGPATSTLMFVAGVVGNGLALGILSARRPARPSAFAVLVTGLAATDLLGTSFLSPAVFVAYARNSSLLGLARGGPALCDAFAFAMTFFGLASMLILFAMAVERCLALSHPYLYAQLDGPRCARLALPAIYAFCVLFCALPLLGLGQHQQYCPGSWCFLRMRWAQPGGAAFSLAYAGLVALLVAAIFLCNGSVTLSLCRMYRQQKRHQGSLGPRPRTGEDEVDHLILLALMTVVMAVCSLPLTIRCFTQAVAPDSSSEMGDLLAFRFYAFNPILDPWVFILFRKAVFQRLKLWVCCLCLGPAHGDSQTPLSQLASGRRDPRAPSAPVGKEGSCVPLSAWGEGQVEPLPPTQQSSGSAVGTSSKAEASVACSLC
The next experiment concerns the target FP receptor (Homo sapiens, UniProt P43088). Kind of experiment: FP receptor binding.
Another experiment has as its system osteopenic, OVX rats. Description: Example One: skeletal effects in osteopenic OVX rats, distal femoral metaphyseal BMC/BMD by DXA. The settings on record: 10 mg/kg/day subcutaneous injection for 4 weeks. Format: in vivo, Sprague-Dawley female rats. How it is done: Prostaglandin E2 (PGE2) restores bone mass by stimulating both bone formation and bone resorption but in favor of bone formation in ovariectomized (OVX) rat skeleton.
Sprague-Dawley female rats were sham-operated (n=20) or OVX (n=50) at 3 months of age. Five weeks post-surgery, OVX rats were treated (subcutaneous injection) with either vehicle or 3-(3-hydroxy-4-phenyl-butyl)-2-(6-(1 H—tetrazol-5-yl)-hexyl)-cyclopentanone at 10 mg/kg/day for 4 weeks. Distal femoral metaphyseal bone mineral content (BMC) and bone mineral density (BMD) were determined by dual energy x-ray absorptiometry (Hologic QDR-1000/W, Hologic Inc., Waltham, Mass.) according to the methods described by Ke et al., (Droloxifene, a New Estrogen Antagonist/Agonist, Prevents Bone Loss in Ovariectomized Rats, Endocrinology, 136:2435-2441; 1995).

T1 sequence (P43116 whole entry): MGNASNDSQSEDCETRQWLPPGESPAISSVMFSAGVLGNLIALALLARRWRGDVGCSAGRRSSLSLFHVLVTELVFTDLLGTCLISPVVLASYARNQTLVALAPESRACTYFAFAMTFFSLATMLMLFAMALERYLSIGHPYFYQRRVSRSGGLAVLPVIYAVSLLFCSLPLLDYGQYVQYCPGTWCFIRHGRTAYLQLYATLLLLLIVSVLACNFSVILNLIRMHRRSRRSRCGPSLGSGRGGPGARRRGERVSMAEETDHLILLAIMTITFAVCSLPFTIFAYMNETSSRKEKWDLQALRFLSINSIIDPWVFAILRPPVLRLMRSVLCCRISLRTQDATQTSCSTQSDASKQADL
T2 sequence (P35408 whole entry): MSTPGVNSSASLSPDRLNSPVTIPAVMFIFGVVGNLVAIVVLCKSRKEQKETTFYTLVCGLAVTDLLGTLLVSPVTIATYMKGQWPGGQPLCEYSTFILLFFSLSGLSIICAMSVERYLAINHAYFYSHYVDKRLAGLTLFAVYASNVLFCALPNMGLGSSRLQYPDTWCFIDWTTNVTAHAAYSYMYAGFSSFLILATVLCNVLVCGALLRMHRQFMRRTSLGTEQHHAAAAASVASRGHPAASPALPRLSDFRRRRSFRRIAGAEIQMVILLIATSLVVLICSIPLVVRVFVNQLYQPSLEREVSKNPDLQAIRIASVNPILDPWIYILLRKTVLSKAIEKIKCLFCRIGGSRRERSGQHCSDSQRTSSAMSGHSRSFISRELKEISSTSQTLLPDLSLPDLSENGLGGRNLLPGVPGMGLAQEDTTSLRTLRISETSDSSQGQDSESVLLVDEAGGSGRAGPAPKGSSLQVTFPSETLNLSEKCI
Chain of FP receptor (P43088 whole entry): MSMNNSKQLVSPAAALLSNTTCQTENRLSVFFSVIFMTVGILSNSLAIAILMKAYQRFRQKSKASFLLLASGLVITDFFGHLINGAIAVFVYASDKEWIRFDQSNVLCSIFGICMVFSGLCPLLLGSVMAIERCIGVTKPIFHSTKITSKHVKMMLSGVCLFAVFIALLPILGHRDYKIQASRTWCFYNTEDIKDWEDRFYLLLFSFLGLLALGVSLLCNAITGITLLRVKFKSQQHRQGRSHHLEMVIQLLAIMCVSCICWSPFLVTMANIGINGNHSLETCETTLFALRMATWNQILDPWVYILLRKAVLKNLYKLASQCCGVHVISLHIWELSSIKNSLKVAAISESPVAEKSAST

At EP2 receptor, `CS(=O)(=O)N(CCCCCCC(=O)O)CCOc1cc(Cl)cc(Cl)c1` [7-(2-(3,5-dichloro-phenoxy)-ethyl)-methanesulfonyl-amino)-heptanoic acid] came in with an IC50 of 17 nM.
At EP4 receptor, `O=C(O)CCCCCCN1C(=O)CCC1CCC(O)Cc1ccccc1` (centres unmarked) [7-(2-(3-hydroxy-4-phenyl-butyl)-5-oxo-pyrrolidin-1-yl)-heptanoic acid] showed an IC50 of 36 nM. This counts as double-digit nanomolar.
As to `O=C1CCC(CCC(O)Cc2ccccc2)C1CCCCCCc1nnn[nH]1` (centres unmarked) [3-(3-hydroxy-4-phenyl-butyl)-2-(6-(1 H—tetrazol-5-yl)-hexyl)-cyclopentanone], the IC50 on EP2 receptor was 56 nM; on EP4 receptor, 70 nM; on EP1 receptor, greater than 3200 nM; on EP3 receptor it was greater than 3200 nM; on DP receptor, greater than 3200 nM; at IP receptor, greater than 3200 nM. At FP receptor, this molecule gave an IC50 greater than 3200 nM. The “restoration of bone mass to the OVX, osteopenic rat skeleton” value in the experiment with osteopenic, OVX rats was “completely restored the bone mass”. The “increase in distal femoral metaphyseal BMC as compared with OVX controls” value in the experiment with osteopenic, OVX rats (started 5 weeks post-OVX) is reported as “+42%”. In the experiment with osteopenic, OVX rats (started 5 weeks post-OVX), the “increase in distal femoral metaphyseal BMC as compared with pre-treatment OVX controls” value is given as “+23%”. Moreover, the “increase in distal femoral metaphyseal BMD as compared with OVX controls” value in the experiment on osteopenic, OVX rats (started 5 weeks post-OVX) is on record as “+28%”. In addition, in the experiment with osteopenic, OVX rats (started 5 weeks post-OVX), the “increase in distal femoral metaphyseal BMD as compared with pre-treatment OVX controls” value was “+17%”.
